From US6737383B1, “Herbicidal oxadiazolidines” (priority 1999, dated 2004)

Tests used:
cocklebur = assay: Test B pre/postemergence cocklebur; format: in vivo, Xanthium strumarium
Outline: (§1)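 Test chemicals in a non-phytotoxic solvent mixture with surfactant were sprayed preemergence onto planted seeds and postemergence onto plants 2 to 18 cm tall (1- to 4-leaf stage). After twelve to sixteen days in a greenhouse, injury was visually rated against untreated controls from 0 (no effect) to 10 (complete control).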

soybean = assay: Test B pre/postemergence soybean; format: in vivo, Glycine max
Outline: as §1

velvetleaf = assay: Test B pre/postemergence velvetleaf; format: in vivo, Abutilon theophrasti
Outline: as §1

duck salad = assay: Test B flood test duck salad; format: in vivo, Heteranthera limosa; conditions: for Plant response rating, Ducksalad (0 to 10 scale, 0 is no effect, 10 is complete control) / Ducksalad plant response rating (0 to 10 scale, 0 is no effect, 10 is complete control): visual evaluation after twelve to sixteen days; for Ducksalad plant response rating (0 to 10 scale, 0 is no effect, 10 is complete control): under heading Pre-emergence
Outline: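 Read-out is a visual response score from 0 (no effect) to 10 (complete control), assigned by comparison with untreated controls. Treatment was applied at the 2-leaf stage, and plants stayed in the greenhouse for twelve to sixteen days before scoring.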

blackgrass = assay: Test E blackgrass; format: in vivo, Alopecurus myosuroides; conditions: Preemergence
green foxtail = assay: Test E green foxtail; format: in vivo, Setaria viridis; conditions: Preemergence
Italian ryegrass = assay: Test E Italian ryegrass; format: in vivo, Lolium multiflorum; conditions: Preemergence
winter wheat = assay: Test E winter wheat; format: in vivo, Triticum aestivum; conditions: Preemergence
wild oat = assay: Test E wild oat; format: in vivo, Avena fatua; conditions: Preemergence
winter barley = assay: Test E winter barley; format: in vivo, Hordeum vulgare; conditions: Preemergence
[1] = Preemergence, Rate 62 g/ha, scale of 0 to 10 where 0 is no effect and 10 is complete control
[2] = Preemergence, Rate 125 g/ha, 0 is no effect, 10 is complete control
[3] = Preemergence, Rate 250 g/ha, scale 0 to 10, 0 is no effect, 10 is complete control
[4] = Preemergence, Rate 500 g/ha, scale 0 (no effect) to 10 (complete control)
[5] = Preemergence, Rate 500 g/ha, scale of 0 to 10 where 0 is no effect and 10 is complete control
[6] = Rate 62 g/ha, Postemergence, scale of 0 to 10 where 0 is no effect and 10 is complete control
[7] = Rate 125 g/ha, Postemergence, scale 0 to 10
[8] = Rate 500 g/ha, Postemergence, scale 0 to 10
[9] = Rate 125 g/ha, Pre-emergence, flood test species, scale 0 to 10 where 0 is no effect and 10 is complete control
[10] = Rate 250 g/ha, Pre-emergence, flood-test species, scale 0 to 10, 0 is no effect, 10 is complete control
[11] = Rate 500 g/ha, 0 to 100 scale where 0 is no effect and 100 is complete control
[12] = Postemergence, Rate 62 g/ha, scale of 0 to 10, 0 is no effect, 10 is complete control
[13] = Postemergence, Rate 500 g/ha, scale of 0 to 10 where 0 is no effect and 10 is complete control
[14] = Preemergence, Rate 62 g/ha, scale 0 to 10 (0 no effect, 10 complete control)
[15] = Preemergence, Rate 125 g/ha, scale 0 to 10, 0 is no effect, 10 is complete control
[16] = Rate 250 g/ha, Postemergence, scale of 0 to 10 where 0 is no effect and 10 is complete control
[17] = Rate 62 g/ha, flood test species, Pre-emergence
[18] = Rate 125 g/ha, flood test species
[19] = Rate 250 g/ha, Pre-emergence (flood test species), scale 0 to 10, 0 is no effect, 10 is complete control
[20] = Rate 500 g/ha, Pre-emergence section of Table B, 0 to 10 scale (0 no effect, 10 complete control)
[21] = Postemergence, Rate 125 g/ha, scale of 0 to 10 where 0 is no effect and 10 is complete control
[22] = Preemergence, Rate 125 g/ha, scale of 0 to 10 where 0 is no effect and 10 is complete control
[23] = Preemergence, Rate 500 g/ha, scale 0 to 10 (0 no effect, 10 complete control)
[24] = Rate 250 g/ha, Postemergence, scale 0 to 10, 0 is no effect, 10 is complete control
[25] = Preemergence, Rate 250 g/ha, scale of 0 to 10 where 0 is no effect and 10 is complete control
[26] = Rate 62 g/ha, Postemergence, scale 0 to 10 (0 no effect, 10 complete control)
[27] = Rate 125 g/ha, Postemergence, scale of 0 to 10 where 0 is no effect and 10 is complete control

Compound: CCc1cccc(C)c1-n1c(=O)on(C(=O)N(c2ccc(F)cc2)C(C)C)c1=O [Compound 201]
- Cocklebur plant response rating (cocklebur; [1]): 0
- Cocklebur plant response rating (0 to 10 scale) (cocklebur; [2]): 0
- Cocklebur plant response rating (cocklebur; [3]): 0
- Cocklebur plant response rating (cocklebur; [4]): 0
- Plant response rating, Cocklebur (cocklebur; [5]): 0
- Cocklebur plant response rating (cocklebur; [6]): 0
- Cocklebur plant response rating (cocklebur; [7]): 0
- Plant response rating (0 to 10; 0 is no effect, 10 is complete control), Cocklebur (cocklebur; Rate 250 g/ha, Postemergence): 0
- Cocklebur plant response rating (cocklebur; [8]): 0
- Soybean plant response rating (soybean; [1]): 0
- Soybean plant response rating (0 to 10 scale) (soybean; [2]): 0
- Soybean plant response rating (soybean; [3]): 0
- Soybean plant response rating (soybean; [4]): 0
- Plant response rating, Soybean (soybean; [5]): 0
- Soybean plant response rating (soybean; [6]): 1
- Soybean plant response rating (soybean; [7]): 1
- Plant response rating (0 to 10; 0 is no effect, 10 is complete control), Soybean (soybean; Rate 250 g/ha, Postemergence): 2
- Soybean plant response rating (soybean; [8]): 3
- Velvetleaf plant response rating (velvetleaf; [1]): 0
- Velvetleaf plant response rating (velvetleaf; [3]): 0
- Velvetleaf plant response rating (velvetleaf; [4]): 0
- Plant response rating, Velvetleaf (velvetleaf; [5]): 0
- Velvetleaf plant response rating (velvetleaf; [6]): 0
- Velvetleaf plant response rating (velvetleaf; [7]): 0
- Plant response rating (0 to 10; 0 is no effect, 10 is complete control), Velvetleaf (velvetleaf; Rate 250 g/ha, Postemergence): 1
- Ducksalad plant response rating (duck salad; Rate 62 g/ha, headed Pre-emergence (flood test species), scale 0 to 10 (0 no effect, 10 complete control)): 0
- Ducksalad plant response rating (duck salad; [9]): 0
- Ducksalad plant response rating (duck salad; [10]): 0
- Plant response rating, Ducksalad (duck salad; Rate 500 g/ha, headed Pre-emergence (flood test species), scale 0 to 10 (0 no effect, 10 complete control)): 2
- Blackgrass plant response rating (0 to 100 scale) (blackgrass; Rate 250 g/ha): 30
- Plant response rating, Blackgrass (blackgrass; [11]): 50
- Green foxtail plant response rating (0 to 100 scale) (green foxtail; Rate 250 g/ha): 50
- Plant response rating, Green foxtail (green foxtail; [11]): 65
- I. Ryegrass plant response rating (0 to 100 scale) (Italian ryegrass; Rate 250 g/ha): 50
- Plant response rating, I. Ryegrass (Italian ryegrass; [11]): 60
- Wheat (winter) plant response rating (0 to 100 scale) (winter wheat; Rate 250 g/ha): 40
- Plant response rating, Wheat (winter) (winter wheat; [11]): 40
- Wild oat plant response rating (0 to 100 scale) (wild oat; Rate 250 g/ha): 50
- Plant response rating, Wild oat (wild oat; [11]): 40
- Barley (winter) plant response rating (0 to 100 scale) (winter barley; Rate 250 g/ha): 0
- Plant response rating, Barley (winter) (winter barley; [11]): 20

Compound: CC(C)N(C(=O)n1oc(=O)n(CCC2OCCCO2)c1=O)c1ccccc1 [Compound 561]
- Cocklebur plant response rating (cocklebur; [12]): 0
- Cocklebur plant response rating (cocklebur; Postemergence, Rate 125 g/ha, scale 0 to 10, 0 is no effect, 10 is complete control): 0
- Plant response rating, Cocklebur (cocklebur; [13]): 0
- Cocklebur plant response rating (cocklebur; [14]): 0
- Cocklebur plant response rating (cocklebur; [15]): 0
- Cocklebur plant response rating (0 to 10 scale) (cocklebur; Preemergence, Rate 250 g/ha): 0
- Cocklebur plant response rating (cocklebur; [5]): 0
- Plant response rating, Cocklebur (cocklebur; [16]): 0
- Soybean plant response rating (soybean; [12]): 2
- Plant response rating, Soybean (soybean; [13]): 5
- Soybean plant response rating (soybean; [14]): 0
- Soybean plant response rating (soybean; [15]): 0
- Soybean plant response rating (0 to 10 scale) (soybean; Preemergence, Rate 250 g/ha): 0
- Soybean plant response rating (soybean; [5]): 2
- Plant response rating, Soybean (soybean; [16]): 3
- Velvetleaf plant response rating (velvetleaf; [12]): 0
- Plant response rating, Velvetleaf (velvetleaf; [13]): 0
- Velvetleaf plant response rating (velvetleaf; [14]): 0
- Velvetleaf plant response rating (velvetleaf; [15]): 0
- Velvetleaf plant response rating (0 to 10 scale) (velvetleaf; Preemergence, Rate 250 g/ha): 0
- Velvetleaf plant response rating (velvetleaf; [5]): 2
- Plant response rating, Velvetleaf (velvetleaf; [16]): 0
- Plant response rating, Ducksalad (0 to 10 scale, 0 is no effect, 10 is complete control) (duck salad; [17]): 0
- Ducksalad plant response rating (0 to 10 scale, 0 is no effect, 10 is complete control) (duck salad; [18]): 0
- Ducksalad plant response rating (duck salad; [19]): 0
- Ducksalad plant response rating (duck salad; [20]): 0

Compound: CC(C)N(C(=O)n1oc(=O)n(CC2CCC2)c1=O)c1ccccc1 [Compound 580]
- Cocklebur plant response rating (cocklebur; [12]): 3
- Plant response rating, Cocklebur (cocklebur; [21]): 3
- Plant response rating, Cocklebur (cocklebur; [13]): 6
- Cocklebur plant response rating (cocklebur; [14]): 0
- Cocklebur plant response rating (cocklebur; [22]): 0
- Cocklebur plant response rating (0 to 10 scale) (cocklebur; Preemergence, Rate 250 g/ha): 0
- Cocklebur plant response rating (cocklebur; [5]): 3
- Plant response rating, Cocklebur (cocklebur; [16]): 3
- Plant response rating, Soybean (soybean; [21]): 4
- Plant response rating, Soybean (soybean; [13]): 4
- Soybean plant response rating (soybean; [22]): 0
- Soybean plant response rating (0 to 10 scale) (soybean; Preemergence, Rate 250 g/ha): 0
- Soybean plant response rating (soybean; [5]): 0
- Plant response rating, Soybean (soybean; [16]): 4
- Plant response rating, Velvetleaf (velvetleaf; [21]): 2
- Plant response rating, Velvetleaf (velvetleaf; [13]): 3
- Velvetleaf plant response rating (velvetleaf; [14]): 0
- Velvetleaf plant response rating (velvetleaf; [22]): 0
- Velvetleaf plant response rating (0 to 10 scale) (velvetleaf; Preemergence, Rate 250 g/ha): 2
- Velvetleaf plant response rating (velvetleaf; [5]): 5
- Plant response rating, Velvetleaf (velvetleaf; [16]): 2
- Plant response rating, Ducksalad (0 to 10 scale, 0 is no effect, 10 is complete control) (duck salad; [17]): 0
- Ducksalad plant response rating (0 to 10 scale, 0 is no effect, 10 is complete control) (duck salad; [18]): 0
- Ducksalad plant response rating (duck salad; [19]): 0
- Ducksalad plant response rating (duck salad; [20]): 0

Compound: CC(C)c1noc(C(C)C)c1-n1c(=O)on(C(=O)N(c2ccc(F)cc2)C(C)C)c1=O [Compound 135]
- Cocklebur plant response rating (cocklebur; [21]): 0
- Cocklebur plant response rating (cocklebur; [14]): 0
- Cocklebur plant response rating (0 to 10 scale) (cocklebur; [2]): 0
- Cocklebur plant response rating (cocklebur; [3]): 0
- Cocklebur plant response rating (cocklebur; [23]): 0
- Cocklebur plant response rating (cocklebur; [6]): 0
- Plant response rating, Cocklebur (cocklebur; [24]): 0
- Cocklebur plant response rating (cocklebur; [8]): 0
- Soybean plant response rating (soybean; [21]): 2
- Soybean plant response rating (soybean; [14]): 0
- Soybean plant response rating (0 to 10 scale) (soybean; [2]): 0
- Soybean plant response rating (soybean; [3]): 0
- Soybean plant response rating (soybean; [23]): 0
- Soybean plant response rating (soybean; [6]): 2
- Plant response rating, Soybean (soybean; [24]): 3
- Soybean plant response rating (soybean; [8]): 3
- Velvetleaf plant response rating (velvetleaf; [21]): 0
- Velvetleaf plant response rating (velvetleaf; [14]): 0
- Velvetleaf plant response rating (0 to 10 scale) (velvetleaf; [2]): 0
- Velvetleaf plant response rating (velvetleaf; [3]): 0
- Velvetleaf plant response rating (velvetleaf; [23]): 0
- Velvetleaf plant response rating (velvetleaf; [6]): 0
- Plant response rating, Velvetleaf (velvetleaf; [24]): 0
- Velvetleaf plant response rating (velvetleaf; [8]): 0
- Ducksalad plant response rating (duck salad; Postemergence (flood test species), Rate 125 g/ha, scale of 0 to 10 where 0 is no effect and 10 is complete control): 0
- Ducksalad plant response rating (duck salad; Rate 62 g/ha, Postemergence section, flood test species, scale of 0 to 10 where 0 is no effect and 10 is complete control): 0
- Plant response rating, Ducksalad (duck salad; Rate 250 g/ha, Postemergence (flood test), scale 0 to 10, 0 is no effect, 10 is complete control): 0
- Ducksalad plant response rating (duck salad; Rate 500 g/ha, listed under Postemergence (flood test species), scale 0 to 10): 0

Compound: C=CCn1c(=O)on(C(=O)N(CC)C2CCCCC2)c1=O [Compound 307]
- Cocklebur plant response rating (cocklebur; [1]): 0
- Cocklebur plant response rating (0 to 10 scale) (cocklebur; Preemergence, Rate 125 g/ha): 0
- Cocklebur plant response rating (cocklebur; [25]): 0
- Cocklebur plant response rating (cocklebur; [26]): 0
- Cocklebur plant response rating (cocklebur; [27]): 0
- Plant response rating, Cocklebur (cocklebur; [16]): 0
- Cocklebur plant response rating (cocklebur; Rate 500 g/ha, Postemergence, scale 0 to 10, 0 no effect, 10 complete control): 0
- Soybean plant response rating (soybean; [1]): 0
- Soybean plant response rating (0 to 10 scale) (soybean; Preemergence, Rate 125 g/ha): 0
- Soybean plant response rating (soybean; [25]): 0
- Soybean plant response rating (soybean; [5]): 0
- Soybean plant response rating (soybean; [26]): 0
- Soybean plant response rating (soybean; [27]): 2
- Plant response rating, Soybean (soybean; [16]): 2
- Velvetleaf plant response rating (velvetleaf; [1]): 0
- Velvetleaf plant response rating (0 to 10 scale) (velvetleaf; Preemergence, Rate 125 g/ha): 0
- Velvetleaf plant response rating (velvetleaf; [25]): 0
- Velvetleaf plant response rating (velvetleaf; [5]): 2
- Velvetleaf plant response rating (velvetleaf; [26]): 0
- Velvetleaf plant response rating (velvetleaf; [27]): 0
- Plant response rating, Velvetleaf (velvetleaf; [16]): 0
- Ducksalad plant response rating (duck salad; Pre-emergence, Rate 1000 g/ha, scale 0 to 10 (0 no effect, 10 complete control)): 0
- Ducksalad plant response rating (duck salad; [9]): 0
- Ducksalad plant response rating (duck salad; [10]): 0
- Ducksalad plant response rating (duck salad; Rate 500 g/ha, Pre-emergence, flood test species, scale 0 to 10 (0 no effect, 10 complete control)): 0
